Series [1] concerns primary mouse peritoneal macrophages. As to the kind of experiment: WST-1 assay in LPS-activated primary mouse peritoneal macrophages. Format: cell-based. As to conditions: LPS 100 ng/mL, doses of up to 1 mM, 24 h, n=8. The procedure: • 1. Non treatment (NT) • 2. LPS 100 ng/mL • 3. LPS 100 ng/mL+NDX1 dose1* • 4. LPS 100 ng/mL+NDX1 dose2* • 5. LPS 100 ng/mL+NDX1 dose3* • 6. LPS 100 ng/mL+NDX2 dose1 • 7. LPS 100 ng/mL+NDX2 dose2 • 8. LPS 100 ng/mL+NDX2 dose3 • 9. LPS 100 ng/mL+NAG dose2 • 10. LPS 100 ng/mL+NAG dose3 (*dose 1, 2, 3 were selected as low, middle and high dose with no cytotoxicity from the cytotoxic assay) The peritoneal macrophages were isolated from peritoneal cavity, and cultured in Dulbecco's modified Eagle's medium (DMEM, Gibco BRL, Gaithersburg, MD) supplemented with 10% fetal bovine serum (FBS) (Hyclone Laboratories, Logan, VT) and 100 IU/mL penicillin G and 100 µg/mL streptomycin, in a humidified atmosphere of 5% carbon dioxide at 37° C. Cells will grow on a 96-well plate and co-treated with 100 ng/ml LPS (Sigma-Aldrich) 0.5 hours after addition of BNAGs and NAG. Twenty-four hours later, the cell number was counted by using the WST-1 kit (Fisher Scientific). After removal of the supernatant, […] new medium was added into each cell. Then 15 μl Cell Proliferation Reagent WST-1 was added and incubated with cells for 3 hours in dark with a humidified atmosphere of 5% carbon dioxide at 37° C. Each sample was determined at 450 nm on a microplate reader.
In general terms: Tetrazolium assays rely on reduction of a dye to a coloured formazan, in cell work by metabolically active cells.

The test system of series [2] is IL1β. The series is described as follows: RT-PCR of IL1β mRNA in LPS-activated RAW264.7 macrophages. It is filed as cell-based, mouse. As to conditions: LPS 100 ng/mL; NDX1 0.1 mM and 0.5 mM, NAG 0.5 mM, NDX2 0.5 mM; n=4. The procedure:
(§1) Mouse RAW264.7 macrophage cell line (ATCC; Manassas, VA, USA) was maintained in DMEM culture medium containing 10% FBS and 1% antibiotic mix. For cell treatment, the test drugs at different doses were added to the culture 0.5 h prior to addition of 100 ng/mL LPS (Sigma-Aldrich Co., St Louis, MO, USA) and then cells were co-treated with LPS for 24 hours.
Total RNA was purified using an RNeasy kit (QIAGEN Sciences, Valencia, CA) according to the protocol provided by the manufacturer, and was stored at −80° C. Synthesis of cDNA from total RNA and the quantitative PCR were carried out by using the iScript™ cDNA synthesis kit and the iQ™ SYBR Green Supermix kit (Bio-Rad Laboratories, Hercules, CA), respectively. The target genes included iNOS, IL-6 and IL-1β. Gene of 18s ribosomal RNA was used as an internal control. The threshold cycle (CT) value was calculated from amplification plots. Data was analyzed using the 2-ΔΔCT method with 18s rRNA serving as the reference. Gene expression was normalized to the control group in each experiment and represented as fold of change. […]

Series [3] deals with mouse iNOS. As to the kind of experiment: Western blot of iNOS expression in LPS-activated RAW264.7 macrophages. Format: cell-based. As to conditions: LPS 100 ng/mL; NDX1 0.1 and 1 mM, NDX2 and NAG 0.5 and 5 mM. The procedure:
as §1
The cellular proteins were prepared from cells growing on a 6-well plate (approximately 500,000/well) using a commercial cell lysis buffer (Thermo Scientific). Then the protein concentration was determined using the Bradford protein assay kit (Bio-Rad, Hercules, CA, USA). The samples containing 100 μg proteins were run on 10% SDS-polyacrylamide gels at a […] and electro-transferred to nitrocellulose membranes (Thermo Scientific) at a constant voltage of 10 V overnight. […] Using the magic wand tool from the tool palette, the area of each band was selected, and the mean histogram were recorded and then charted. […]

On to `CC(=O)N[C@H]1C(O)O[C@H](CO)[C@@H](O)[C@@H]1O` (stereo partly drawn) [NAG, N-acetyl glucosamine], for which, in series [1], the “effect on cell number (WST-1) compared with LPS alone” value was “no significant effect on cell number”. Moreover, the “inhibition of IL1β mRNA expression (RT-PCR)” value in series [2] was “could inhibit IL1β”. For the same compound, in series [3], the “rank order for inhibition of iNOS expression (western blot)” value was “NDX1>NDX2>NAG”.

Source of the values: patent US20260191887A1, “METHODS OF TREATING INFLAMMATION” (THERAPEUTIKOS, INC., priority 2022, published 2026).
